Reference: patent US6410539B1, “Imidazole derivatives and their use as farnesyl protein transferase inhibitors” (Astrazenca UK Limited, priority 1997, dated 2002)

How the values were obtained:
[1] = target: T1, Farnesyl protein transferase (FPT) (Homo sapiens, UniProt P49354+P49356); test: In-vitro farnesyl protein transferase assay (farnesylation of Ki-ras with radiolabelled farnesyl pyrophosphate); type: biochemical; conditions: "in the above test"; FPT partially purified from human placenta, substrate Kras (CVIM C-terminal sequence)
T1 construct: partially purified from human placenta by ammonium sulphate fractionation; from tissue; host or cells: human placenta
Protocol: The following stock solutions were used and the assays were conducted in 96 well plates: TRIS Buffer (500 mM TRIS, 50 mM MgCl2.6H2O, pH=8.0); Farnesyl pyrophosphate (6.4 mg/ml); Aprotinin (1.9 mg/ml); Ki-ras (0.5 mg/ml, stored at −80° C.); Acid ethanol (850 ml absolute ethanol+150 ml concentrated HCl).
Farnesyl protein transferase (FPT) was partially purified from human placenta by ammonium sulphate fractionation followed by a single Q-Sepharose™ (Pharmacia, Inc) anion exchange chromatography essentially as described by Ray and Lopez-Belmonte (Ray K P and Lopez-Belmonte J (1992) Biochemical Society Transactions 20 494-497). The substrate for FPT was Kras (CVIM C-terminal sequence). The cDNA for oncogenic val12 variant of human c-Ki-ras-2 4B was obtained from the plasmid pSW11-1 (ATCC). This was then subcloned into the polylinker of a suitable expression vector e.g. pIC147. The Kras was obtained after expression in the E. coli strain, BL21. […]
Assays were performed in 96 well plates as follows: 10 μl of test compound solution was added to each well. […] Precipitated protein was then collected onto glass fibre filter mats (B) using a Tomtec™ cell harvester and tritiated label was measured in a Wallac™1204 Betaplate scintillation counter. […]

SMILES | melting point [°C] | IC50 [1] [nM]
COC(=O)[C@H](CCSC)NC(=O)c1ccc(NC(Cn2ccnc2)c2ccc(F)cc2)cc1-c1ccc(F)cc1 (stereo partly drawn) [Example 2, Methyl (2S)-2-{2-(4-fluorophenyl)-4-[1-(4-fluorophenyl)-2-(imidazol-1-yl)ethylamino]benzoylamino}-4methylsulfanylbutyrate] | 94 to 98 | 
CSCCC(NC(=O)c1ccc(NC(Cn2ccnc2)c2ccc(F)cc2)cc1-c1ccccc1)C(=O)O [Example 6, (2S)-2-{2-Phenyl-4-[1-(4-fluorophenyl-2-imidazol-1-yl)ethylamino]benzoylamino}-4-methylsulfanylbutyric acid] |  | ~2
CSCC[C@H](NC(=O)c1cc(NC(Cn2ccnc2)c2ccc(F)cc2)ccc1CCc1ccc(F)cc1)C(=O)O (stereo partly drawn) [Example 8, (2S)-2-{5-[1-(4-Fluorophenyl)-2-(imidazol-1-yl)ethylamino]-2-(4-fluorophenethyl)benzoylamino}-4-methylsulfanylbutyric acid] | 115 to 120 | 
CSCC[C@H](NC(=O)c1cc(NC(Cn2ccnc2)c2ccc(F)cc2)ccc1Cc1ccc(F)cc1)C(=O)O (stereo partly drawn) [Example 10, (2S)-2-{5-[1(4-Fluorophenyl)-2-(imidazol-1-yl)ethylamino]-2-(4-fluorobenzyl)benzoylamino}-4-methylsulfanylbutyric acid] | 130 to 135 | 
